Reference: patent publication US10913781B2, “Pepducin design and use” (Tufts Medical Center, Inc., priority 2011, dated 2021)
Peptide text beside a SMILES is read from it. * marks the point of attachment. Palmitoyl = CCCCCCCCCCCCCCCC(=O)*

Assays:
[1] = test system: A549, HOP62, and HOP92 lung carcinoma cell lines; test: Cytotoxicity/cell viability of lung carcinoma cells (MIT assay); format: cell-based, human; settings: 3-day period
CXCR1/CXCR2 = test: Human neutrophil chemotaxis to IL-8; format: cell-based; settings: 100 nM IL-8
Method: (A) Human neutrophils (n=4 normal volunteers) were analyzed for surface expression of human PAR1, PAR2, and PAR4 by flow cytometry with PAR-specific antibodies. […] Chemotaxis index is the ratio of directed versus random migration over 30 min through a 5-μm pore filter.
P2pal-18S had no effect on PAR1-dependent platelet aggregation (FIG. 5A). Neither P2pal-18S nor P2pal-14GQ caused membrane disruption or apoptosis as assessed by propidium iodide uptake in SW620 cells with up to 30 μM concentrations of pepducin (FIG. 5B).

PAR2 [2] = biological target: PAR2 (Homo sapiens, UniProt P55085); test: Trypsin cleavage of PAR2; format: cell-based
PAR2 (Homo sapiens, UniProt P55085), sequence (P55085 26-397): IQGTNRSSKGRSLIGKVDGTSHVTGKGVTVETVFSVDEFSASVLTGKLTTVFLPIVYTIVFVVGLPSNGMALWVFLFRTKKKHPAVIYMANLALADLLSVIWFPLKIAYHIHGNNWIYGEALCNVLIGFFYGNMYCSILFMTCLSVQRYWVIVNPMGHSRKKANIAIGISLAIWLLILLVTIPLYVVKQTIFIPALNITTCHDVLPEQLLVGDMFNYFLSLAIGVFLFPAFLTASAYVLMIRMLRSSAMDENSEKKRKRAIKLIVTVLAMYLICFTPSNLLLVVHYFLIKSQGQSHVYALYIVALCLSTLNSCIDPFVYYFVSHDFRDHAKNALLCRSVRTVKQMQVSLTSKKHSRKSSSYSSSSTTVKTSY
Excerpt: Additionally, we tested whether P2pal-18S inhibited proteolytic cleavage of PAR2 or endocytosis (DeFea K A, et al. (2000) J Cell Biol 148: 1267-81; Roosterman D, et al. (2003) Am J Physiol Cell Physiol 284: C1319-29; Stalheim L, et al. (2005) Mol Pharmacol 67: 78-87). […] Therefore, the P2pal-18S i3 loop pepducin can inhibit PAR2-dependent calcium signaling, PLC-b inositol phosphate formation, and cell migration, but not proteolytic cleavage or endocytosis.

PAR1 = biological target: T1, PAR1 (Homo sapiens, UniProt P25116); test: PAR1-dependent human platelet aggregation (SFLLRN); format: cell-based; parameters: endogenous in cells; settings: 2.5 μM SFLLRN; P2pal-18S 1 μM or 5 μM
T1 sequence (P25116 22-425): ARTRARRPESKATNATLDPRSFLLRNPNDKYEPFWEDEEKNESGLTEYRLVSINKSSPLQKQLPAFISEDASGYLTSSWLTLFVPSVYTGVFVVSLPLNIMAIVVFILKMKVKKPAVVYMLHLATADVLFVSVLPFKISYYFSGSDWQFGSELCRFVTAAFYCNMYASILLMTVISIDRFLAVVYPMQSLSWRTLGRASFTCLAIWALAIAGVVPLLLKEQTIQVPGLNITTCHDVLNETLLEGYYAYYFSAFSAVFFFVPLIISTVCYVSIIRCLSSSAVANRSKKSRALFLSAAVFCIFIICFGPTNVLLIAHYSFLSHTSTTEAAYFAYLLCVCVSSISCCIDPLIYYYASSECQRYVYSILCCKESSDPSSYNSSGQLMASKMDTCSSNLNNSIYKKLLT
Method: FIG. 5 illustrates: (A) PAR1-dependent human platelet aggregation is not affected by P2pal-18S. Gel-filtered platelets were incubated with 2.5 μM SFLLRN (SEQ ID NO:1) to induce PAR1-dependent platelet aggregation. […] Error bars represent mean±SD. […] Cells were lifted and incubated in PBS/0.4% BSA for 30 min at 25° C. with 0.5-30 μM P2pal-18S or P2pal-14GQ. Propidium iodide (PI) was added directly to the cells and after a 15 min incubation, PI uptake was quantified by flow cytometry. […] Error bars represent ±SEM.

PAR2 [3] = biological target: PAR2 (Mus musculus, UniProt P55086); test: SLIGRL-induced mouse paw edema; format: in vivo; parameters: from tissue; host or cells: living C57BL/6 mice, hindpaw; settings: WT C57BL/6 mice; 10 mg/kg s.c.
PAR2 (Mus musculus, UniProt P55086), sequence (P55086 26-399): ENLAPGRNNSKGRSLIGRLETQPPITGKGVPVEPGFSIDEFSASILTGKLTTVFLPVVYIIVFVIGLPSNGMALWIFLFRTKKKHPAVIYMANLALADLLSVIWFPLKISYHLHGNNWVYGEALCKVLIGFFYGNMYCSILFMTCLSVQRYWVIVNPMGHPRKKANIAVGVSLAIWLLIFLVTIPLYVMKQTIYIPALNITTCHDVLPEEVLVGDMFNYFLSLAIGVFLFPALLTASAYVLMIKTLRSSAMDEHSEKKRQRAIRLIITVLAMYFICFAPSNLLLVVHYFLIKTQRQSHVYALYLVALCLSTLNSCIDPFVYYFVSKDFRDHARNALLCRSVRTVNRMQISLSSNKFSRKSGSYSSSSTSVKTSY
Method: (A) λ-carrageenan/kaolin or (B) the PAR2 specific agonist SLIGRL was administered by intraplantar injection to the left hindpaw of C57BL/6 wild-type or PAR2^−/− mice that were treated with subcutaneous (s.c.) injection of 10 mg/kg of P2pal-18S or vehicle. Paw area was measured and reported as fold-increase relative to baseline paw area. (C) Histology of representative H&E-stained footpads 7 h after λ-carrageenan/kaolin injection and quantification of the infiltrating inflammatory cells at 40× magnification. […]
To evaluate the in vivo efficacy and specificity of P2pal-18S, the ability of the pepducins of the present invention was tested to protect against inflammatory hindlimb paw edema in wild-type (WT) and PAR2-deficient mouse strains (Damiano B P, et al. (1999) J Pharmacol Exp Ther 288: 671-78.) Acute inflammatory edema was induced by an intraplantar injection of λ-carrageenan and kaolin, irritants which cause a massive leukocytosis and hyperemic response, which leads to localized swelling. PAR2-dependent activity of an embodiment of the present invention, polypeptide P2pal-18S, was directly assessed by quantifying its inhibitory effects against the PAR2-specific agonist SLIGRL when injected into the hind footpad of WT C57BL/6 mice. […]

CCCCCCCCCCCCCCCC(=O)N[C@H](C(=O)N[C@@H](CC(C)C)C(=O)N[C@@H](CCCCN)C(=O)N[C@@H](CCSC)C(=O)N[C@@H](CCCCN)C(=O)N[C@H](C(=O)N[C@@H](CCCCN)C(=O)N[C@@H](CCCCN)C(=O)N1CCC[C@H]1C(=O)N[C@@H](C)C(=O)N[C@H](C(N)=O)C(C)C)C(C)C)[C@@H](C)CC [P1pal-i1-11] (Palmitoyl-ILKMKVKKPAV-NH2)
Sensitivity of A549 cells (cytotoxicity) [1]: less sensitive

CCCCCCCCCCCCCCCC(=O)N[C@@H](CCCNC(=N)N)C(=O)N[C@@H](CO)C(=O)N[C@@H](CO)C(=O)N[C@@H](C)C(=O)N[C@@H](CCSC)C(=O)N[C@@H](CC(=O)O)C(=O)N[C@@H](CCC(=O)O)C(=O)N[C@@H](CC(N)=O)C(=O)N[C@@H](CO)C(=O)N[C@@H](CCC(=O)O)C(=O)N[C@@H](CCCCN)C(=O)N[C@@H](CCCCN)C(=O)N[C@@H](CCCNC(=N)N)C(=O)N[C@@H](CCCCN)C(=O)N[C@@H](CO)C(=O)N[C@@H](C)C(=O)N[C@H](C(=O)N[C@@H](CCCCN)C(N)=O)[C@@H](C)CC [P2pal-18S]
Antagonist activity, neutrophil chemotaxis, CXCR1/2 IL-8 receptors (CXCR1/CXCR2): no antagonist activity
Effect on trypsin cleavage of PAR2 (PAR2 [2]): no effect
Effect on PAR1-dependent platelet aggregation (PAR1): had no effect
Decrease in SLIGRL-induced edema (PAR2 [3]): 85%
